Among the data in patent publication US9468692B2, “Labeled molecular imaging agents and methods of use” (GENERAL ELECTRIC COMPANY, priority 2014, dated 2016) are remaining activity values, retold here.

This test has as its target T1, cystine/glutamate transporter (Homo sapiens, UniProt Q9UPY5).
T1 construct: endogenous in cells; host or cells: SKOV3 cells treated with 100 uM DEM (the paragraph also says 'DEM treated EL4 cells')
T1 sequence (Q9UPY5 1-501): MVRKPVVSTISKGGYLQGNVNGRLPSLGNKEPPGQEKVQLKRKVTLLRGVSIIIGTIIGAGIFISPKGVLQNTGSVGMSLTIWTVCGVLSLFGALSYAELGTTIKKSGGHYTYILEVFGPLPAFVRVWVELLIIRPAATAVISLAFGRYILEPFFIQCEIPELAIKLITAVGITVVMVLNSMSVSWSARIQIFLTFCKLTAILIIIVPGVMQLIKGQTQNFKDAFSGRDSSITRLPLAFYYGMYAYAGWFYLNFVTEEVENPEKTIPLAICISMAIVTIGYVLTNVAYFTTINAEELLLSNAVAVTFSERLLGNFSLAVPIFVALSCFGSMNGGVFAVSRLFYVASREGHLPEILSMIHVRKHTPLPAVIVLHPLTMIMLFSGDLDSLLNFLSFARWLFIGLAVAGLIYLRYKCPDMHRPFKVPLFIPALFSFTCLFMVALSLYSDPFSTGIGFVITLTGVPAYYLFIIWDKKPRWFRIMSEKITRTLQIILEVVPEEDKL
T1 sequence (P08195 2-529 partner): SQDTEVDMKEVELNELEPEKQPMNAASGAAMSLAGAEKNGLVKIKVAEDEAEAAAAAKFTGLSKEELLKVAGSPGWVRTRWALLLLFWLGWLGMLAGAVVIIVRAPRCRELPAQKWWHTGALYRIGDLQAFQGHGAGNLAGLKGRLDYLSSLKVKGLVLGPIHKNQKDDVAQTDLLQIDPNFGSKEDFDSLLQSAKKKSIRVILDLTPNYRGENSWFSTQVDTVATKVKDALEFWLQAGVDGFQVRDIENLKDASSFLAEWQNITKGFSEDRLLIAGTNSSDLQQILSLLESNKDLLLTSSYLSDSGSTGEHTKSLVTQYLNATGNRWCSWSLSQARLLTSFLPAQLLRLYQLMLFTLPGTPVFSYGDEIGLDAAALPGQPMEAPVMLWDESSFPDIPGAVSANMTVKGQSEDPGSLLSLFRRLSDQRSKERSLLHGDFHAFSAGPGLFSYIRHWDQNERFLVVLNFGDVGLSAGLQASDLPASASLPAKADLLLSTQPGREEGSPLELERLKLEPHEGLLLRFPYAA
The test is described as follows: Inhibition of 3H-L-Glu uptake in DEM treated cells. Type of test: cell-based. The conditions noted are these: SK-OV-3, 0.5 h; 1 mM agent; SKOV3 cells treated with 100 μM DEM overnight; 30 minutes uptake at room temperature; triplicate; lower = inhibition of transporter; read-out: % of control 3H-Glu uptake. As to the method: Also provided are measurements of inhibition response of ^3H-L-GLU (control) uptake in DEM treated EL4 cells. As such 96 well plate were seeded with 100,000 SKOV3 cells/well in complete growth media (McCoy's+10% Fetal Bovine Serum(FBS)) and incubated overnight at 37° C. The media was changed to 100 μM DEM and again incubated overnight at 37° C. Wash 1× with Hank's Balanced Salt Solution (HBSS) Room Temperature and assayed […] of each agent (Table 2) in triplicate by incubating for 30 minutes (uptake) at room temperature. It was then washed twice with HBSS and 200 μl MicroScint20 added for counting. The protocol used 200 μCi ^3H-Glu per well. The mix and agent and ^3H-Glu provided a final concentration of 200 μCi and 1 mM agent. […] As such lower response is indicative of inhibition of the transporter. As such numbers below approximately 30% is equivalent to 70% inhibition and are considered good candidates for pharmaceutical agents.

Molecules are shown by their SMILES.

With `CC(=O)N(CCC[C@H](N)C(=O)O)CCC(=O)O` [Structure a], the remaining activity at 1000 µM worked out at 118%.
Turning to `CC(=O)N(CCC[C@H](N)C(=O)O)CC(=O)O` [Structure b], the remaining activity at 1000 µM was found to be 95.7%.
On to `CC(=O)N(CCCC[C@H](N)C(=O)O)CCC(=O)O` [Structure c], for which the remaining activity at 1000 µM was 102%.
As to `N[C@@H](CCCN(CCC(=O)O)C(=O)c1ccccc1)C(=O)O` [Structure d], the remaining activity at 1000 µM worked out at 36%.
For `CCCC(=O)N(CCCC[C@H](N)C(=O)O)CC(=O)O` [Structure e], the remaining activity at 1000 µM is 102%.
Next, `N[C@@H](CCCN(CC(=O)O)C(=O)c1ccccc1)C(=O)O` [Structure f]: 37.2%; `CCc1ccc(C(=O)N(CCC[C@H](N)C(=O)O)CC(=O)O)cc1` [Structure g]: 11.2%.
As to `CCOc1cccc(C(=O)N(CCC[C@H](N)C(=O)O)CC(=O)O)c1` [Structure h], the remaining activity at 1000 µM turned out to be 39.8%.
For `CCOc1ccc(C(=O)N(CCC[C@H](N)C(=O)O)CC(=O)O)cc1` [Structure i], the remaining activity at 1000 µM was 17.3%.
Regarding `N[C@@H](CCCN(CC(=O)O)C(=O)Cc1ccccc1)C(=O)O` [Structure j], the remaining activity at 1000 µM stood at 43.3%.
Next, `CCOc1ccc(C(=O)N(CCC[C@H](N)C(=O)O)CCC(=O)O)cc1` [Structure k]: 11.6%; `N[C@@H](CCCN(CCC(=O)O)C(=O)Cc1ccccc1)C(=O)O` [Structure l]: 54.2%; `N[C@@H](CCCN(CC(=O)O)C(=O)CCc1ccccc1)C(=O)O` [Structure n]: 12.3%.
Under `N[C@@H](CCCN(CC(=O)O)C(=O)c1cccc2ccccc12)C(=O)O` [Structure p] stands 12.4%; under `Cc1ccc(S(=O)(=O)N(CCC[C@H](N)C(=O)O)CC(=O)O)cc1` [Structure q], 13.4%; under `N[C@@H](CCCN(CC(=O)O)C(=O)OCc1ccccc1)C(=O)O` [Structure r], 16.4%.
For `N[C@@H](CCCN(CC(=O)O)C(=O)c1ccc(O)cc1)C(=O)O` [Structure s], the remaining activity at 1000 µM turned out to be 22.4%.
Under `N[C@@H](CCCN(CCC(=O)O)C(=O)c1ccc(O)cc1)C(=O)O` [Structure t] stands 45.4%; under `N[C@@H](CCCN(CCC(=O)O)C(=O)c1ccc(OCc2ccccc2)cc1)C(=O)O` [Structure u], 12.7%.
Turning to `CCC(C(=O)O)N(CCC[C@H](N)C(=O)O)C(=O)c1ccccc1` (stereo partly shown) [Structure w], the remaining activity at 1000 µM was determined as 26.1%.
For `N[C@@H](CCCN(CC(=O)O)C(=O)c1ccc(OCCF)cc1)C(=O)O` [Structure x], the remaining activity at 1000 µM turned out to be 13.3%.
With `N[C@@H](CCCN(CCC(=O)O)C(=O)c1ccc(OCCF)cc1)C(=O)O` [Structure y], the remaining activity at 1000 µM was found to be 10.6%.
